The text below walks through data of patent US7495027B2, “3-aryl-4-hydroxyfuranone compounds and the human and animal health use thereof” (Wyeth, priority 2003, dated 2009).

One may read the MIC as the lowest concentration that inhibits growth of the organism.

Each structure is given as a SMILES string. Values after ≈ are worked out from the molar mass of the structure shown.

Chain of E. coli Uridine-diphosphate-N-acetvimuramoyl: L-alanine lipase, MurC (P17952 whole entry): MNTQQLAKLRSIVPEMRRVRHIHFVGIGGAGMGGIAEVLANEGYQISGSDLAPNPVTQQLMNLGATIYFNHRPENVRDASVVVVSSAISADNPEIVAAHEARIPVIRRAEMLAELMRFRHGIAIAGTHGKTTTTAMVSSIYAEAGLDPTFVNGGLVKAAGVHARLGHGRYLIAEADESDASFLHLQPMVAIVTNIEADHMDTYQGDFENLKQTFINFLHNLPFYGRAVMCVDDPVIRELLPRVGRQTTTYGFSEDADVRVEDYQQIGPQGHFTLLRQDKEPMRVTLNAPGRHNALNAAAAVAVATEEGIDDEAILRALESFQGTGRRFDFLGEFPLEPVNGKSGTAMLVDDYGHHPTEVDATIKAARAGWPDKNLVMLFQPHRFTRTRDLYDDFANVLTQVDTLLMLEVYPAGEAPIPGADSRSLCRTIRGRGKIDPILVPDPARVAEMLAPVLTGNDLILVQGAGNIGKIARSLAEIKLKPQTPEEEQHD

One experiment has as its target E. coli Uridine-diphosphate-N-acetvimuramoyl: L-alanine lipase, MurC (Escherichia coli, UniProt P17952). The experiment can be described thus: Inhibitory activity against MurC (E. coli). Particulars: (E) E. coli enzyme. Type of experiment: biochemical. The method, then:
S. aureus and E. coli Uridine-diphosphate-N-acetvimuramoyl: L-alanine lipase, MurC
The buffer is prepared from aqueous reagents with the following final concentrations: 83 mM Tris/HCl (pH 8.0), 50 mM MgC12, and 2 mM ATP.
Preparation of Enzyme Solution:
A 1 mg/mL stock solution of MurC is prepared in a buffer consisting of 20 mM Tris/HCl (pH 8.5) with 2.5 μM BME. The stock solution is further diluted with the buffer to give a final enzyme concentration of 100 μg/mL for the E. coli stock solution and 70 μg/mL for the S. aureus stock solution.
Preparation of Test Compound Solutions:
All test solutions are prepared in DMSO as 10 mg/mL, then diluted with 50 mM Tris/HCl (pH 8.5) to 100 μg/mL.
Preparation of Stop Solution:
The stop solution is prepared by stirring 1 part 4.2% ammonium molydbate in 4N HCl with 2 parts 0.045% malachite green for 30 min.
In this evaluation, the inhibitory activity of a test compound against MurC, the enzyme which catalyzes the third step of bacterial cell wall bioxynthesis is determined. Experiments are performed by adding 2.5 μl buffer, 2.5 μl 0.5M NH4SO2, 5 μl 2 μM L-Ala, 5 μl enzyme solution and 6.5 μl test compound solution to each well in a 96-well microplate. After a pre-incubation period of 10 mins. at 23° C., 3.75 μl of a 0.75 μM solution of UDP-MurNac is added to each well. Following an incubation period of 10 mins. at 37° C., 210 μl stop solution and 50 μl of a 34% w/v sodium citrate solution are added and color is allowed to develop for 10 mins. at 23° C. (Lanzetta et al., Analytical Biochemistry, 1979, 95) Optical density readings are taken at 660 nm using a Molecular Devices Spectra Max 250 with Soft Max software. Controls are performed using the same procedure and omitting the addition of UDP-MurNac.
Using these values the IC50 is determined by linear regression analysis.
For the compound `O=C1O/C(=C\c2cccc(C(F)(F)F)c2)C(O)=C1c1cccc2ccccc12` [Example 48], the “MurC IC50” value was 13 (E) μg/mL.

The test system of the next experiment is staphylococci. The experiment in a line: Minimum inhibitory concentration, microdilution broth method, staphylococci. Type of experiment: cell-based. As to conditions: Staphylococcus aureus, S. aureus GC 1131; Mueller-Hinton broth, 18-22 hours at 35° C.; read-out: MIC S. aureus GC 1131. The method, then: (§1) Evaluation of the Minimum Inhibitory Concentration of Test Compounds Against A Variety of Bacterial Strains
(§2) In this evaluation the minimal inhibitory concentration (MIC) of test compounds against Gram positive and Gram negative bacteria is performed using the microdilution broth method as recommended by the National Committee for Clinical Laboratory Standards (Approved Standards M7-A5 2000). Mueller-Hinton broth is used for the enterobacteriaceae, staphylococci and enterococci. Streptococci are also tested in Mueller-Hinton broth supplemented with 5% horse blood (LHB). Test organisms include recent clinical isolates that are resistant to methicillin, penicillin and/or vancomycin. […].
A general note: Broth dilution looks for growth in wells or tubes with falling amounts of substance.
For `O=C1O/C(=C\c2cccc(C(F)(F)F)c2)C(O)=C1c1cccc2ccccc12` [Example 48], the MIC stood at 32 µg/mL (≈ 83.7 µM).

Still in this experiment, the particulars now being: Staphylococcus aureus, S. aureus GC 4543; Mueller-Hinton broth, 18-22 hours at 35° C.; read-out: MIC S. aureus GC 4543.
With `O=C1O/C(=C\c2cccc(C(F)(F)F)c2)C(O)=C1c1cccc2ccccc12` [Example 48], the MIC came out at 64 µg/mL (≈ 167 µM).

For another experiment, the system named is enterococci. The experiment can be described thus: Minimum inhibitory concentration, microdilution broth method, enterococci. Type of experiment: cell-based. Particulars: Enterococcus faecalis, E. faecalis GC 2242; Mueller-Hinton broth, 18-22 hours at 35° C.; read-out: MIC E. faecalis GC 2242. The method, then: as §1, §2
In the case of `O=C1O/C(=C\c2cccc(C(F)(F)F)c2)C(O)=C1c1cccc2ccccc12` [Example 48], the MIC stood at 32 µg/mL (≈ 83.7 µM).

Still in this experiment, the particulars now being: Enterococcus faecalis, E. faecalis GC 4555; Mueller-Hinton broth, 18-22 hours at 35° C.; read-out: MIC E. faecalis GC 4555.
Consider `O=C1O/C(=C\c2cccc(C(F)(F)F)c2)C(O)=C1c1cccc2ccccc12` [Example 48], for which the MIC was over 128 µg/mL.

The subject of another experiment is Streptococci. The experiment can be described thus: Minimum inhibitory concentration, microdilution broth method, streptococci. Type of experiment: cell-based. As to conditions: S. pneumo GC 1894; Mueller-Hinton broth with 5% horse blood, 18-22 hours at 35° C. The method, then: as §1, §2
As to `O=C1O/C(=C\c2cccc(C(F)(F)F)c2)C(O)=C1c1cccc2ccccc12` [Example 48], 8 µg/mL (≈ 20.9 µM) was the least that counted as inhibitory (MIC).

For a further experiment, the system named is C. elegans. The experiment can be described thus: Efficacy against nematodes (C. elegans motility rating). On the set-up: key: 0: no effect; 7: reduced movement in 24 h; 8: dead in 24 h; 9: dead in 4 h. As to conditions: dose 100 ppm, observations at 4 h and 24 h postimmersion. Summed up: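 Mixed-stage C. elegans (~50 per well, L1 to adult) in M9 buffer exposed to test compound at 100 ppm, 150 ppm or 200 μM final. Motility of larvae and adults scored under dissecting microscope at 4 h and 24 h.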
With `O=C1OC(=Cc2ccc(OC(F)F)cc2)C(O)=C1c1ccc(OC(F)(F)F)cc1` (mixture of isomers) [R=H; R1=4-OCF3—C6H4**; R2=4-OCHF2—C6H4], the Rating came out at 9.

`O=C1OC(=Cc2ccc(Oc3ccccc3)cc2)C(O)=C1c1ccc(OC(F)(F)F)cc1` (mixture of isomers) [R=H; R1=4-OCF3—C6H4**; R2=4-phenoxy-C6H4]: the Rating was 0.

Consider `O=C1OC(=Cc2ccccn2)C(O)=C1c1ccc(OC(F)(F)F)cc1` (mixture of isomers) [R=H; R1=4-OCF3—C6H4**; R2=pyridine-2-yl], for which the Rating worked out at 0.

`O=C1OC(=Cc2cccnc2)C(O)=C1c1ccc(OC(F)(F)F)cc1` (mixture of isomers) [R=H; R1=4-OCF3—C6H4**; R2=pyridine-3-yl] showed a Rating of 0.

`O=C1OC(=Cc2cccs2)C(O)=C1c1ccc(OC(F)(F)F)cc1` (mixture of isomers) [R=H; R1=4-OCF3—C6H4**; R2=thiophen-2-yl] had a Rating of 0.

On to `O=C1O/C(=C\c2ccc(Cl)cc2)C(O)=C1c1cccc(C(F)(F)F)c1` [R=H; R1=3-CF3—C6H4; R2=4-Cl—C6H4], for which the Rating worked out at 9.

Still in this experiment, the particulars now being: dose 150 ppm, observations at 4 h and 24 h postimmersion.
`O=C1OC(=Cc2ccc3ccccc3c2)C(O)=C1c1cccc2ccccc12` [R=H; R1=1-naphthyl; R2=2-naphthyl]: the Rating turned out to be 9.

In turn, `O=C1O/C(=C\c2ccc(-c3ccccc3)cc2)C(O)=C1c1cccc2ccccc12` [R=H; R1=1-naphthyl; R2=4-biphenyl] displayed a Rating of 9.

For `O=C1O/C(=C\c2ccc(-c3ccccc3)cc2)C(O)=C1c1ccc(Cl)cc1Cl` [R=H; R1=2,4-diCl—C6H3; R2=4-biphenyl], the Rating worked out at 9.

Consider `O=C1O/C(=C\c2ccc(-c3ccccc3)cc2)C(O)=C1c1ccccc1C(F)(F)F` [R=H; R1=2-CF3—C6H4; R2=4-biphenyl], for which the Rating was determined as 8.

`O=C1O/C(=C\c2cccc3ccccc23)C(O)=C1c1ccc2ccccc2c1` [R=H; R1=2-naphthyl; R2=1-naphthyl] registered a Rating of 9.

Consider `O=C1O/C(=C\c2ccc3ccccc3c2)C(O)=C1c1ccc2ccccc2c1` [R=H; R1=2-naphthyl; R2=2-naphthyl], for which the Rating amounted to 9.

`O=C1O/C(=C\c2ccc(-c3ccccc3)cc2)C(O)=C1c1ccc(Cl)c(Cl)c1` [R=H; R1=3,4-diCl—C6H3; R2=4-biphenyl] had a Rating of 9.

On to `O=C1O/C(=C\c2cccc3ccccc23)C(O)=C1c1cc(Cl)cc(Cl)c1` [R=H; R1=3,5-diCl—C6H3; R2=1-naphthyl], for which the Rating is recorded as 9.

The subject of another experiment is Trichostrongylus columbriformis. The experiment in a line: In vivo efficacy against T. colubriformis in infected gerbils. Particulars: gerbils infected with T. colubriformis; single oral dose of 50 mg/kg by gavage; worm counts four days post-treatment; % mortality as compared to negative control. The method, then:
In Vivo Evaluation of the Efficacy of Test Compounds Against T. colubriformis
In this evaluation, gerbils are infected with Trichostrongylus columbriformis infective larvae at a concentration of approximately 800 L3/mL. Larvae for gerbil infections are cultured from feces from sheep previously infected with T. colubriformis. One week post infection, test compounds are administered by gavage as a single oral dose of 50 mg/kg of body weight. For each group of 3 gerbils, 10 mg of test compound are dissolved in 2 mL of PEG 400:DMSO (1:2 v/v) and each animal is administered the test solution at a rate of 0.1 mL/10 g of body weight. […] All animals are observed daily for morbidity and mortality. Four days post-treatment, all animals are weighed and necropsied. Worm counts are conducted with the use of stereoscopes and counters.
`O=C1OC(=Cc2ccc(OC(F)F)cc2)C(O)=C1c1ccc(OC(F)(F)F)cc1` (mixture of isomers) [R=H; R1=4-OCF3—C6H4**; R2=4-OCHF2—C6H4] yielded a Mortality of 44.20%.

The compound `O=C1OC(=Cc2ccc(Oc3ccccc3)cc2)C(O)=C1c1ccc(OC(F)(F)F)cc1` (mixture of isomers) [R=H; R1=4-OCF3—C6H4**; R2=4-phenoxy-C6H4] returned a Mortality of 0.00%.

`O=C1OC(=Cc2ccccn2)C(O)=C1c1ccc(OC(F)(F)F)cc1` (mixture of isomers) [R=H; R1=4-OCF3—C6H4**; R2=pyridine-2-yl] had a Mortality of 0.00%.

The compound `O=C1OC(=Cc2cccnc2)C(O)=C1c1ccc(OC(F)(F)F)cc1` (mixture of isomers) [R=H; R1=4-OCF3—C6H4**; R2=pyridine-3-yl] came in with a Mortality of 0.00%.

`O=C1OC(=Cc2cccs2)C(O)=C1c1ccc(OC(F)(F)F)cc1` (mixture of isomers) [R=H; R1=4-OCF3—C6H4**; R2=thiophen-2-yl] yielded a Mortality of 0.00%.

For `O=C1OC(=Cc2ccc3ccccc3c2)C(O)=C1c1cccc2ccccc12` [R=H; R1=1-naphthyl; R2=2-naphthyl], the Mortality is reported as 28.90%.

Regarding `O=C1O/C(=C\c2ccc(-c3ccccc3)cc2)C(O)=C1c1cccc2ccccc12` [R=H; R1=1-naphthyl; R2=4-biphenyl], the Mortality is 18.50%.

The compound `O=C1O/C(=C\c2ccc(-c3ccccc3)cc2)C(O)=C1c1ccc(Cl)cc1Cl` [R=H; R1=2,4-diCl—C6H3; R2=4-biphenyl] displayed a Mortality of 24.50%.

Regarding `O=C1O/C(=C\c2ccc(-c3ccccc3)cc2)C(O)=C1c1ccccc1C(F)(F)F` [R=H; R1=2-CF3—C6H4; R2=4-biphenyl], the Mortality came out at 20.20%.

On to `O=C1O/C(=C\c2cccc3ccccc23)C(O)=C1c1ccc2ccccc2c1` [R=H; R1=2-naphthyl; R2=1-naphthyl], for which the Mortality was 36.10%.

For `O=C1O/C(=C\c2ccc3ccccc3c2)C(O)=C1c1ccc2ccccc2c1` [R=H; R1=2-naphthyl; R2=2-naphthyl], the Mortality is 13.80%.

Compound `O=C1O/C(=C\c2ccc(-c3ccccc3)cc2)C(O)=C1c1ccc(Cl)c(Cl)c1` [R=H; R1=3,4-diCl—C6H3; R2=4-biphenyl] came in with a Mortality of 23.00%.

`O=C1O/C(=C\c2cccc3ccccc23)C(O)=C1c1cc(Cl)cc(Cl)c1` [R=H; R1=3,5-diCl—C6H3; R2=1-naphthyl] registered a Mortality of 0.00%.

Take `O=C1O/C(=C\c2ccc(Cl)cc2)C(O)=C1c1cccc(C(F)(F)F)c1` [R=H; R1=3-CF3—C6H4; R2=4-Cl—C6H4]: the Mortality came out at 21.60%.
